Test results from patent publication US7259011B2, “Pluripotent adult stem cells” (priority 2004, dated 2007).
Like-named read-outs stand apart in the source and are kept apart here.

Tested on: PPASCs
Source text: PPASCs were thawed or trypsinized from expansion cultures and plated at 20,000 cells per 16 mm well in 24-well gelatin-coated culture plates (Corning Glass Works, Corning, N.Y.). All wells contained EMEM and 10% pre-selected horse serum. The control group remained in this medium, while the experimental wells contained media supplemented with dexamethasone (Sigma). Dexamethasone used were logarithmic concentrations from 10^−10 to 10^−6 M. Cultures were fixed and assayed for phenotypes at one-week intervals up to five weeks.
The immunohistochemical protocol typically used was adopted from Romero-Ramos et al. (2002)^3:
8) 0.25 ml of the primary antibody in PBS was added for 60 minutes at 37° C. • Antibodies used: Table 2
10) A second blocking step of 1% Goat Serum in PBS with 0.5% Tween was performed for 20 minutes preceding the addition of the secondary antibody. • 11) The cells received 0.25 ml of horse-radish peroxidase conjugated IgG secondary antibody that was diluted with PBS to a concentration of 1:1500 or secondary antibody conjugated with either FITC or TRITC fluorochrome. • 12) After 30 minutes of incubation at 37° C. with the secondary antibody, the wells were rinsed with PBS five times. If the secondary antibody was conjugated to fluorochrome, photographs were taken after this step. • 13) 0.25 ml of True Blue or DAB solution was added and light protected for up to 20 minutes. • 14) Five rinses of dH2O followed. • 15) Photographs were taken on an Olympus Inverted Scope Model IMT light microscope.

In the case of `C[C@@H]1C[C@H]2[C@@H]3CCC4=CC(=O)C=C[C@]4(C)[C@@]3(F)[C@@H](O)C[C@]2(C)[C@@]1(O)C(=O)CO` [dex, dexamethasone], the “concentration at which cells containing vesicles (Sudan Black B stained, adipocytes) were observed” value is reported as 10^−9 to 10^−6 M, the “concentration at which induction of endothelial cells reproducibly occurred” value is reported as ≥ 10^−8 M and the “concentration giving the highest quantity of hepatocytes” value is reported as 10^−8 M. The “AFP stained cells (liver; α-fetoprotein)” value (10^−6 M dex) was “+ (+ = 1–5 cells seen per culture well.)”, the “CIICI stained cells (cartilage; type II collagen)” value (shortened to “CIICI stained cells”) (10^−6 M dex) was “− (− = no stained cells seen per culture well.)” and the “CNPase stained cells (glial cells)” value (10^−6 M dex) was “− (− = no stained cells seen per culture well.)”. The “CT3 stained cells (cardiac muscle; cardiac troponin T)” value (shortened to “CT3 stained cells”) (10^−6 M dex) was “+ (+ = 1–5 cells seen per culture well.)”, the “Desmin stained cells (myogenic precursor cells)” value (“Desmin stained cells” for short) (10^−6 M dex) was “+ (+ = 1–5 cells seen per culture well.)” and the “GFAP stained cells (astrocytes)” value (10^−6 M dex) was “− (− = no stained cells seen per culture well.)”. For the same molecule, the “IA4 stained cells (smooth muscle; α-smooth muscle actin)” value (shortened to “IA4 stained cells”) (10^−6 M dex) was “+ (+ = 1–5 cells seen per culture well.)”, the IL-1β stained cells (10^−6 M dex) was “+ (+ = 1–5 cells seen per culture well.)” and the “LDL uptake (fluorescent labeled acetylated low density lipoprotein, 20 min)” value (“LDL uptake” for short) (10^−6 M dex) was “++ (++ = 5–10 cells observed per culture well.)”. For the same molecule, the “MF-20 stained cells (skeletal muscle; heavy chain of myosin)” value (“MF-20 stained cells” for short) (10^−6 M dex) was “− (− = no stained cells seen per culture well.)”, the “MPIII stained cells (bone; osteopontin)” value (10^−6 M dex) was “− (− = no stained cells seen per culture well.)” and the “P2B1 stained cells (endothelial cells)” value (10^−6 M dex) was “++ (++ = 5–10 cells observed per culture well.)”. For the same molecule, the “P4A4 stained cells (endothelial cells)” value (10^−6 M dex) was “+ (+ = 1–5 cells seen per culture well.)”, the “Sudan Black B stained cells (fat)” value (10^−6 M dex) was “++ (++ = 5–10 cells observed per culture well.)” and the “Talin stained cells (fibroblasts)” value (10^−6 M dex) was “− (− = no stained cells seen per culture well.)”. The “Trop I stained cells (cardiac muscle; cardiac troponin I)” value (from here on “Trop I stained cells”) (10^−6 M dex) was “+ (+ = 1–5 cells seen per culture well.)”, the “WVIDI stained cells (bone; bone sialoproteins I and II)” value (shortened to “WVIDI stained cells”) (10^−6 M dex) was “− (− = no stained cells seen per culture well.)” and the “AFP stained cells (liver; α-fetoprotein)” value (10^−7 M dex) was “++ (++ = 5–10 cells observed per culture well.)”. The “CIICI stained cells” value (10^−7 M dex) was “+ (+ = 1–5 cells seen per culture well.)”, the “CNPase stained cells (glial cells)” value (10^−7 M dex) was “− (− = no stained cells seen per culture well.)” and the “CT3 stained cells” value (10^−7 M dex) was “++ (++ = 5–10 cells observed per culture well.)”. The “Desmin stained cells” value (10^−7 M dex) was “+ (+ = 1–5 cells seen per culture well.)”, the “GFAP stained cells (astrocytes)” value (10^−7 M dex) was “− (− = no stained cells seen per culture well.)” and the “IA4 stained cells” value (10^−7 M dex) was “++ (++ = 5–10 cells observed per culture well.)”. The IL-1β stained cells (10^−7 M dex) was “+ (+ = 1–5 cells seen per culture well.)”, the “LDL uptake” value (10^−7 M dex) was “++ (++ = 5–10 cells observed per culture well.)” and the “MF-20 stained cells” value (10^−7 M dex) was “− (− = no stained cells seen per culture well.)”. The “MPIII stained cells (bone; osteopontin)” value (10^−7 M dex) was “+ (+ = 1–5 cells seen per culture well.)”, the “P2B1 stained cells (endothelial cells)” value (10^−7 M dex) was “+ (+ = 1–5 cells seen per culture well.)” and the “P4A4 stained cells (endothelial cells)” value (10^−7 M dex) was “+ (+ = 1–5 cells seen per culture well.)”. The “Sudan Black B stained cells (fat)” value (10^−7 M dex) was “++ (++ = 5–10 cells observed per culture well.)”, the “Talin stained cells (fibroblasts)” value (10^−7 M dex) was “++ (++ = 5–10 cells observed per culture well.)” and the “Trop I stained cells” value (10^−7 M dex) was “+ (+ = 1–5 cells seen per culture well.)”. The “WVIDI stained cells” value (10^−7 M dex) was “+ (+ = 1–5 cells seen per culture well.)”, the “AFP stained cells (liver; α-fetoprotein)” value (10^−8 M dex) was “+ (+ = 1–5 cells seen per culture well.)” and the “CIICI stained cells” value (10^−8 M dex) was “++ (++ = 5–10 cells observed per culture well.)”. For the same molecule, the “CNPase stained cells (glial cells)” value (10^−8 M dex) was “+ (+ = 1–5 cells seen per culture well.)”, the “CT3 stained cells” value (10^−8 M dex) was “+ (+ = 1–5 cells seen per culture well.)” and the “Desmin stained cells” value (10^−8 M dex) was “+ (+ = 1–5 cells seen per culture well.)”. For the same molecule, the “GFAP stained cells (astrocytes)” value (10^−8 M dex) was “− (− = no stained cells seen per culture well.)”, the “IA4 stained cells” value (10^−8 M dex) was “+ (+ = 1–5 cells seen per culture well.)” and the IL-1β stained cells (10^−8 M dex) was “+ (+ = 1–5 cells seen per culture well.)”. The “LDL uptake” value (10^−8 M dex) was “+ (+ = 1–5 cells seen per culture well.)”, the “MF-20 stained cells” value (10^−8 M dex) was “+ (+ = 1–5 cells seen per culture well.)” and the “MPIII stained cells (bone; osteopontin)” value (10^−8 M dex) was “+ (+ = 1–5 cells seen per culture well.)”. The “P2B1 stained cells (endothelial cells)” value (10^−8 M dex) was “− (− = no stained cells seen per culture well.)”, the “P4A4 stained cells (endothelial cells)” value (10^−8 M dex) was “+ (+ = 1–5 cells seen per culture well.)” and the “Sudan Black B stained cells (fat)” value (10^−8 M dex) was “+ (+ = 1–5 cells seen per culture well.)”. For the same molecule, the “Talin stained cells (fibroblasts)” value (10^−8 M dex) was “++ (++ = 5–10 cells observed per culture well.)”, the “Trop I stained cells” value (10^−8 M dex) was “+ (+ = 1–5 cells seen per culture well.)” and the “WVIDI stained cells” value (10^−8 M dex) was “+ (+ = 1–5 cells seen per culture well.)”. The “AFP stained cells (liver; α-fetoprotein)” value (10^−9 M dex) was “+ (+ = 1–5 cells seen per culture well.)”, the “CIICI stained cells” value (10^−9 M dex) was “+ (+ = 1–5 cells seen per culture well.)” and the “CNPase stained cells (glial cells)” value (10^−9 M dex) was “++ (++ = 5–10 cells observed per culture well.)”. The “CT3 stained cells” value (10^−9 M dex) was “− (− = no stained cells seen per culture well.)”, the “Desmin stained cells” value (10^−9 M dex) was “++ (++ = 5–10 cells observed per culture well.)” and the “GFAP stained cells (astrocytes)” value (10^−9 M dex) was “++ (++ = 5–10 cells observed per culture well.)”. The “IA4 stained cells” value (10^−9 M dex) was “− (− = no stained cells seen per culture well.)”, the IL-1β stained cells (10^−9 M dex) was “− (− = no stained cells seen per culture well.)” and the “LDL uptake” value (10^−9 M dex) was “− (− = no stained cells seen per culture well.)”. The “MF-20 stained cells” value (10^−9 M dex) was “+ (+ = 1–5 cells seen per culture well.)”, the “MPIII stained cells (bone; osteopontin)” value (10^−9 M dex) was “+ (+ = 1–5 cells seen per culture well.)” and the “P2B1 stained cells (endothelial cells)” value (10^−9 M dex) was “− (− = no stained cells seen per culture well.)”. For the same molecule, the “P4A4 stained cells (endothelial cells)” value (10^−9 M dex) was “− (− = no stained cells seen per culture well.)”, the “Sudan Black B stained cells (fat)” value (10^−9 M dex) was “− (− = no stained cells seen per culture well.)” and the “Talin stained cells (fibroblasts)” value (10^−9 M dex) was “+ (+ = 1–5 cells seen per culture well.)”. For the same molecule, the “Trop I stained cells” value (10^−9 M dex) was “− (− = no stained cells seen per culture well.)”, the “WVIDI stained cells” value (10^−9 M dex) was “+ (+ = 1–5 cells seen per culture well.)” and the “AFP stained cells (liver; α-fetoprotein)” value (10^−10 M dex) was “− (− = no stained cells seen per culture well.)”. For the same molecule, the “CIICI stained cells” value (10^−10 M dex) was “− (− = no stained cells seen per culture well.)”, the “CNPase stained cells (glial cells)” value (10^−10 M dex) was “++ (++ = 5–10 cells observed per culture well.)” and the “CT3 stained cells” value (10^−10 M dex) was “− (− = no stained cells seen per culture well.)”. The “Desmin stained cells” value (10^−10 M dex) was “+ (+ = 1–5 cells seen per culture well.)”, the “GFAP stained cells (astrocytes)” value (10^−10 M dex) was “+ (+ = 1–5 cells seen per culture well.)” and the “IA4 stained cells” value (10^−10 M dex) was “− (− = no stained cells seen per culture well.)”. The IL-1β stained cells (10^−10 M dex) was “− (− = no stained cells seen per culture well.)”, the “LDL uptake” value (10^−10 M dex) was “− (− = no stained cells seen per culture well.)” and the “MF-20 stained cells” value (10^−10 M dex) was “+ (+ = 1–5 cells seen per culture well.)”. The “MPIII stained cells (bone; osteopontin)” value (10^−10 M dex) was “+ (+ = 1–5 cells seen per culture well.)”, the “P2B1 stained cells (endothelial cells)” value (10^−10 M dex) was “− (− = no stained cells seen per culture well.)” and the “P4A4 stained cells (endothelial cells)” value (10^−10 M dex) was “− (− = no stained cells seen per culture well.)”. For the same molecule, the “Sudan Black B stained cells (fat)” value (10^−10 M dex) was “− (− = no stained cells seen per culture well.)”, the “Talin stained cells (fibroblasts)” value (10^−10 M dex) was “− (− = no stained cells seen per culture well.)” and the “Trop I stained cells” value (10^−10 M dex) was “− (− = no stained cells seen per culture well.)”. The “WVIDI stained cells” value (10^−10 M dex) was “+ (+ = 1–5 cells seen per culture well.)”, the “Von Kossa's stain of multilayered nodules (mineral)” value (after 3 weeks of treatment) was “mineralized” and the “Alcian blue pH 1.0 staining (cartilage)” value (pH 1) was “sulfated proteoglycans were detected”.
